Consider 50 molecules from ChEMBL document CHEMBL1121895, “Pyrazolodiazepines. 3. 4-Aryl-1,6,7,8-tetrahydro-1,3-dialkylpyrazolo[3,4-e][1,4]diazepines as antidepressant agents” (1981).

Holding throughout (assay type): functional
Assay [1] is filed under the species Rattus norvegicus. Description: Time-related potentiation of methamphetamine-induced anorexia in rats at the lowest active dose. As to conditions: read-out: MED.
The species named for assay [2] is Rattus norvegicus. Description: Potentiation of Methamphetamine effect for intracranial self stimulation(SS) in rats.
The test system of assay [3] is Rattus norvegicus. Description: Amount of milk ingested after the 120 min methamphetamine-challenges, produced by the compound at 1.25 mg/kg in fasted rats.
The subject of assay [4] is Rattus norvegicus. Kind of assay: Amount of milk ingested after the 15 min methamphetamine-challenges, produced by the compound at 2.5 mg/kg in fasted rats.
Assay [5] deals with Rattus norvegicus. Description: Amount of milk ingested after the 15 min methamphetamine-challenges, produced by the compound at 10 mg/kg in fasted rats.
The test system of assay [6] is Rattus norvegicus. Description: Amount of milk ingested after the 120 min methamphetamine-challenges, produced by the compound at 2.5 mg/kg in fasted rats.
Assay [7] relates to Rattus norvegicus. Description: Amount of milk ingested after the 120 min methamphetamine-challenges, produced by the compound at 10 mg/kg in fasted rats.
Assay [8] relates to Rattus norvegicus. Kind of assay: Amount of milk ingested after the 120 min methamphetamine-challenges, produced by the compound at 0.625 mg/kg in fasted rats.
Assay [9] has as its system Rattus norvegicus. Kind of assay: Amount of milk ingested after the 15 min methamphetamine-challenges, produced by the compound at 0.625 mg/kg in fasted rats.
The subject of assay [10] is Rattus norvegicus. Description: Amount of milk ingested after the 15 min methamphetamine-challenges, produced by the compound at 5 mg/kg in fasted rats.
The subject of assay [11] is Rattus norvegicus. Description: Amount of milk ingested after the 120 min methamphetamine-challenges, produced by the compound at 5 mg/kg in fasted rats.
Assay [12] concerns Rattus norvegicus. Kind of assay: Amount of milk ingested after the 15 min methamphetamine-challenges, produced by the compound at 1.25 mg/kg in fasted rats.
Assay [13] relates to Rattus norvegicus. Kind of assay: Amount of milk ingested after the 15 min methamphetamine-challenges, produced by the compound at 0.312 mg/kg in fasted rats.
The test system of assay [14] is Rattus norvegicus. Kind of assay: Amount of milk ingested after the 120 min methamphetamine-challenges, produced by the compound at 0.312 mg/kg in fasted rats.

Regarding `Cc1nn(C)c2c1C(c1ccccc1Cl)=NCCN2`, the minimal effective dose in assay [1] was determined as 2.5 mg/kg. As for `Cc1nn(C)c2c1C(c1cccc(Cl)c1)=NC(C)(C)CN2`, the minimal effective dose in assay [1] stood at 2.5 mg/kg. Moreover, the Dose in assay [2] turned out to be 10 mg/kg. `Cc1nn(C)c2c1C(c1ccccc1Cl)=NCCN2CCCN(C)C`: the minimal effective dose in assay [1] is above 10 mg/kg.

Regarding `Cc1nn(C)c2c1C(c1ccc(Cl)c(Cl)c1)=NCCN2`, the minimal effective dose in assay [1] is 2.5 mg/kg. As to `CCn1nc(C)c2c1NCCN=C2c1cccc(C(F)(F)F)c1`, the minimal effective dose in assay [1] is 0.63 mg/kg. For the molecule `Cc1nn(C)c2c1C(c1cccc(Cl)c1C)=NCCN2`, in assay [1], the minimal effective dose is 1.25 mg/kg. In [2], the Dose worked out at 5 mg/kg. With `Cc1nn(C)c2c1C(c1cccc(Br)c1)=NCCN2`, in assay [1], the minimal effective dose stood at 0.63 mg/kg. Also, the Dose in assay [2] was 5 mg/kg.

For `CCc1nn(C)c2c1C(c1cccc(Br)c1)=NCCN2`, in assay [1], the minimal effective dose stood at 1.25 mg/kg. Also, the Dose in [2] was 5 mg/kg. For the molecule `Cc1cccc(C2=NC(C)(C)CNc3c2c(C)nn3C)c1`, the minimal effective dose in assay [1] was above 10 mg/kg. For `CCc1nn(C)c2c1C(c1cccc(C)c1)=NCCN2`, the minimal effective dose in assay [1] turned out to be 5 mg/kg. Regarding `Cc1nn(C)c2c1C(c1ccccc1)=NCCN2C`, the minimal effective dose in [1] worked out at 2.5 mg/kg. The Dose in assay [2] was above 10 mg/kg.

With `Cc1nn(C)c2c1C(c1ccccc1)=NCC1CCCCN21` (stereo unspecified), the minimal effective dose in [1] turned out to be 5 mg/kg. Take `Cc1nn(C)c2c1C(c1cccc(O)c1)=NCCN2`: in assay [1], the minimal effective dose worked out at 2.5 mg/kg. In assay [2], the Dose is 10 mg/kg. Regarding `Cc1ccc(C2=NCCNc3c2c(C)nn3C)cc1`, in assay [1], the minimal effective dose was found to be 2.5 mg/kg. For the molecule `COc1ccc(C2=NCCNc3c2c(C)nn3C)cc1`, the minimal effective dose in assay [1] was above 10 mg/kg. On the same count and under the same terms, the value for `Cc1nn(C)c2c1C(c1cccc(Cl)c1)=NCC1CCCCN21` (stereo unspecified) was 2.5 mg/kg; that for `CC(=O)N1CCN=C(c2cccc(Cl)c2)c2c(C)nn(C)c21` was above 10 mg/kg; that for `CCN1CCN=C(c2cccc(Cl)c2)c2c(C)nn(C)c21` was 0.63 mg/kg. As for `Cc1n[nH]c2c1C(c1cccc(Cl)c1)=NCCN2`, in assay [1], the minimal effective dose turned out to be 2.5 mg/kg. For the molecule `Cc1cc(C)cc(C2=NCCNc3c2c(C)nn3C)c1`, the minimal effective dose in assay [1] was above 10 mg/kg.

Turning to `Cc1nn(C)c2c1C(c1cccc(N)c1)=NCCN2`, in assay [1], the minimal effective dose was determined as 2.5 mg/kg. Turning to `Cc1nn(C)c2c1C(c1cccc([N+](=O)[O-])c1)=NCCN2`, in [1], the minimal effective dose is 5 mg/kg.

`Cc1nn(C)c2c1C(c1ccccc1)=NC(C)C(C)N2` (stereo unspecified): in [1], the minimal effective dose worked out at 10 mg/kg. The same measure, in the same setting: the figure for `Cc1nn(C)c2c1C(c1ccc(Cl)cc1)=NCCN2` is 2.5 mg/kg; for `Cc1nn(C)c2c1C(c1cccc(N=[N+]=[N-])c1)=NCCN2` it is 2.5 mg/kg. For `CCc1nn(C)c2c1C(c1cccc(F)c1)=NCCN2`, the minimal effective dose in assay [1] stood at 2.5 mg/kg. With `Cc1nn(C)c2c1C(c1ccccc1Cl)=NCC(C#N)N2` (stereo unspecified), the minimal effective dose in assay [1] was above 10 mg/kg. As to `Cc1nn(C)c2c1C(c1cccc(Cl)c1)=NC(C)CN2` (stereo unspecified), the minimal effective dose in assay [1] is 0.63 mg/kg. Consider `Cc1nn(C)c2c1C(c1cccc(Cl)c1)=[N+]([O-])CCN2`, for which the minimal effective dose in assay [1] was above 10 mg/kg. Regarding `Cc1nn(C)c2c1C(c1cccc(Cl)c1)=NCCN2CCCN(C)C`, the minimal effective dose in assay [1] was above 10 mg/kg. Consider `Cc1nn(C)c2c1C(c1cccc(Cl)c1)=NCCN2C`, for which the minimal effective dose in assay [1] was 0.63 mg/kg.

As for `CCc1nn(C)c2c1C(c1cccc(F)c1)=NCCN2CCCN(C)C`, the minimal effective dose in assay [1] was above 10 mg/kg. Turning to `Cc1nn(C)c2c1C(c1cccc(Cl)c1)=NCCN2CCN1CCCC1`, in [1], the minimal effective dose was above 10 mg/kg. For `Cc1nn(C)c2c1C(c1cccc(F)c1)=NCCN2`, in assay [1], the minimal effective dose is 2.5 mg/kg. Further, the Dose in assay [2] is 2.5 mg/kg. Turning to `Cc1cccc(C2=NCCNc3c2c(C)nn3C)c1`, in assay [1], the minimal effective dose was determined as 2.5 mg/kg. Besides, in [2], the Dose was 10 mg/kg.

As for `Cc1nn(C)c2c1C(c1cccc(Cl)c1)=NCCN2N=O`, the minimal effective dose in [1] amounted to 1.25 mg/kg. As to `Cc1nn(C)c2c1C(c1cccc(C(F)(F)F)c1)=NCCN2`, the minimal effective dose in [1] is 0.63 mg/kg. The Dose in assay [2] amounted to 1.25 mg/kg. On to `Cc1ccc(C2=NCCN(CCCN(C)C)c3c2c(C)nn3C)cc1`, for which the minimal effective dose in assay [1] was above 10 mg/kg. On the same count and under the same terms, the figure for `Cc1nn(C)c2c1C(c1cccc(F)c1)=NCCN2CCCN(C)C` is above 10 mg/kg. `Cc1nn(C)c2c1C(c1ccc(O)cc1)=NCCN2C`: the minimal effective dose in [1] was 2.5 mg/kg. Further, in assay [2], the Dose was 5 mg/kg.

In the case of `Cc1nn(C)c2c1C(c1ccccc1)=NCCN2CCCN(C)C`, the minimal effective dose in assay [1] is above 10 mg/kg. Consider `Cc1cccc(C2=NCCN(CCCN(C)C)c3c2c(C)nn3C)c1`, for which, in assay [1], the minimal effective dose was above 10 mg/kg. Still for that read-out and setting: the figure for `Cc1ccc(C)c(C2=NCCNc3c2c(C)nn3C)c1` is above 10 mg/kg; for `Cc1nn(C)c2c1C(c1ccccc1Cl)=NCCN2C` it is 2.5 mg/kg. As to `COc1cc(OC)cc(C2=NCCNc3c2c(C)nn3C)c1`, the minimal effective dose in assay [1] came to 2.5 mg/kg. For the same molecule, the Dose in assay [2] was found to be 10 mg/kg. `Cc1nn(C)c2c1C(c1cccc(C#N)c1)=NCCN2`: the minimal effective dose in [1] came to 1.25 mg/kg. On to `CCn1nc(C)c2c1N(C)CCN=C2c1ccccc1Cl`, for which the minimal effective dose in assay [1] turned out to be 5 mg/kg. For the same molecule, the Dose in [2] is above 10 mg/kg.

For the molecule `Cc1nn(C)c2c1C(c1ccccc1)=NCCN2.Cl`, the minimal effective dose in assay [1] came to 2.5 mg/kg. On to `CN(C)CCCN1c2ccccc2CCc2ccccc21` [IMIPRAMINE], for which the Amount in [3] came out at 4.8 mL; in assay [4], 3.3 mL; in [5] it was 0 mL; in assay [6], 2.2 mL; in [7], 0 mL; in assay [8], 3.3 mL. Also, the Amount in [9] was 4 mL; in assay [10], 0.5 mL; in assay [11], 0.1 mL; in [12], 2.7 mL. In assay [1], the minimal effective dose was determined as 2.5 mg/kg. In addition, the Dose in [2] was 1.25 mg/kg. As to `Cc1nn(C)c2c1C(c1cccc(Cl)c1)=NCCN2` [ZOMETAPINE], the Amount was 0.2 mL in assay [3]; 0 mL in assay [4]; 0 mL in [5]; 0.2 mL in [6]; 0.1 mL in [7]; 0.5 mL in assay [8]. In addition, the Amount in assay [9] was found to be 1.1 mL; in assay [10], 0.1 mL; in assay [11] it was 0.1 mL; in assay [12], 1.7 mL; in assay [13], 4.2 mL; in assay [14], 3.6 mL. Moreover, the minimal effective dose in assay [1] came out at 0.63 mg/kg. Also, in assay [2], the Dose was found to be 1.25 mg/kg.
